According to patent publication US11566022B2, “3-(5-methoxy-1-oxoisoindolin-2-yl)piperidine-2,6-dione derivatives and uses thereof” (NOVARTIS AG, priority 2019, dated 2023):

What follows are compounds tested against HiBit-WIZ fusion protein (Homo sapiens, UniProt O95785+Q96SW2) (assay: Quantification of WIZ protein levels in HiBit tag fusion protein assay (WIZ HiBit assay in 293T cells)). Conditions: HEK-293T, 100 minus Amax; 293T cells; read-out: % degradation of WIZ (100-Amax).
Chain of HiBit-WIZ fusion protein (O95785 whole entry, the tested form may be a part): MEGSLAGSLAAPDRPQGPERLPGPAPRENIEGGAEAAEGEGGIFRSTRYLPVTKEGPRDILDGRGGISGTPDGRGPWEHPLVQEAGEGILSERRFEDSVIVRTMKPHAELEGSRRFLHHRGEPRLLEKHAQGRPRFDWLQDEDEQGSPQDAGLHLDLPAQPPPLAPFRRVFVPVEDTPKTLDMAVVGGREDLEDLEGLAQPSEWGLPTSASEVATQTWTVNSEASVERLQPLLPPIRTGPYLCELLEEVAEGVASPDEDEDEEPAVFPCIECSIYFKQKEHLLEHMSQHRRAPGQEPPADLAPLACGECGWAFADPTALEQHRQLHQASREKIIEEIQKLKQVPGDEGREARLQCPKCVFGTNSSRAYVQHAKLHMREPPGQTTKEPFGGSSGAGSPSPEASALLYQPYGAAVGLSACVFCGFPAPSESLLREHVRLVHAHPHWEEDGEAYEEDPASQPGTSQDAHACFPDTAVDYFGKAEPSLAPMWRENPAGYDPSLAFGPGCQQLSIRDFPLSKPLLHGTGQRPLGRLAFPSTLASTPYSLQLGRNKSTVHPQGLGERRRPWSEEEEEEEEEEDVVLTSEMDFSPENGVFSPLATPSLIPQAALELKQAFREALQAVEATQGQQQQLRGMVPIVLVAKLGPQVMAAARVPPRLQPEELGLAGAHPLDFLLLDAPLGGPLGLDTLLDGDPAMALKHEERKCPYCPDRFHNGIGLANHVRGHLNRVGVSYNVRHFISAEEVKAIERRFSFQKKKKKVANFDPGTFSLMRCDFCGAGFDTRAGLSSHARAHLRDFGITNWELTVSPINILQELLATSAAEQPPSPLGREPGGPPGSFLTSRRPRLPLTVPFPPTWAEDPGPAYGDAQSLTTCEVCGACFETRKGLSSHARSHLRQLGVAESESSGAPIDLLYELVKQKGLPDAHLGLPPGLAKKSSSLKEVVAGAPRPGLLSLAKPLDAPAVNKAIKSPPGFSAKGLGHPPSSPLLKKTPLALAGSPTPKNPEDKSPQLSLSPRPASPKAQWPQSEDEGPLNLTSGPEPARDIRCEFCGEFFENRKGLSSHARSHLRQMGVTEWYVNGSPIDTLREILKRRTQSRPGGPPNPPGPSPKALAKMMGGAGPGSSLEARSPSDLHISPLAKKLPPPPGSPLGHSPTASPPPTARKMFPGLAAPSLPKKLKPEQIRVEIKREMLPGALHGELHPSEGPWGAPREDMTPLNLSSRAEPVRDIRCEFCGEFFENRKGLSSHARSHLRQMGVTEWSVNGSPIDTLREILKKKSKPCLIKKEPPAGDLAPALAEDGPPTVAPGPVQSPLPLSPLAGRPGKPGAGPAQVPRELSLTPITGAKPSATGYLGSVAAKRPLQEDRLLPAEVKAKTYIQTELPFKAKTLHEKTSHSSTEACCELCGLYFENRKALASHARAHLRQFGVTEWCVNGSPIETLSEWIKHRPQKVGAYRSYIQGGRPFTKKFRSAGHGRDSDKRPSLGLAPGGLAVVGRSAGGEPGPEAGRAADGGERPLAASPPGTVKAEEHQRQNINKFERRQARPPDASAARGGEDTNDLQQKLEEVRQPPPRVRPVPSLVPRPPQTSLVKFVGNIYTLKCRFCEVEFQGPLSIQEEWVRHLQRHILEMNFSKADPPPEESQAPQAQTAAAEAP
Chain of HiBit-WIZ fusion protein (Q96SW2 whole entry, the tested form may be a part): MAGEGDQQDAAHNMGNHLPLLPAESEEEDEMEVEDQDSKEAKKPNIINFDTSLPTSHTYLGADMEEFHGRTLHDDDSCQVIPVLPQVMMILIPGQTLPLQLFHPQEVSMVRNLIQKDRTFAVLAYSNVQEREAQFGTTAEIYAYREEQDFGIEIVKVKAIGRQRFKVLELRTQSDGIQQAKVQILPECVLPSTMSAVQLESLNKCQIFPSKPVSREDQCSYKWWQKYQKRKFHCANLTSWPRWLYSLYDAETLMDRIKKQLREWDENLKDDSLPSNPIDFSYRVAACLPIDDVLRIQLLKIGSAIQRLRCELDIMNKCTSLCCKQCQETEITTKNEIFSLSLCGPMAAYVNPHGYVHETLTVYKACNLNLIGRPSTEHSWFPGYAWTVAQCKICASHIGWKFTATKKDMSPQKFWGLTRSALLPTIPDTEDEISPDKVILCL
Chain of HiBit-WIZ fusion protein (Q16531 whole entry partner, the tested form may be a part): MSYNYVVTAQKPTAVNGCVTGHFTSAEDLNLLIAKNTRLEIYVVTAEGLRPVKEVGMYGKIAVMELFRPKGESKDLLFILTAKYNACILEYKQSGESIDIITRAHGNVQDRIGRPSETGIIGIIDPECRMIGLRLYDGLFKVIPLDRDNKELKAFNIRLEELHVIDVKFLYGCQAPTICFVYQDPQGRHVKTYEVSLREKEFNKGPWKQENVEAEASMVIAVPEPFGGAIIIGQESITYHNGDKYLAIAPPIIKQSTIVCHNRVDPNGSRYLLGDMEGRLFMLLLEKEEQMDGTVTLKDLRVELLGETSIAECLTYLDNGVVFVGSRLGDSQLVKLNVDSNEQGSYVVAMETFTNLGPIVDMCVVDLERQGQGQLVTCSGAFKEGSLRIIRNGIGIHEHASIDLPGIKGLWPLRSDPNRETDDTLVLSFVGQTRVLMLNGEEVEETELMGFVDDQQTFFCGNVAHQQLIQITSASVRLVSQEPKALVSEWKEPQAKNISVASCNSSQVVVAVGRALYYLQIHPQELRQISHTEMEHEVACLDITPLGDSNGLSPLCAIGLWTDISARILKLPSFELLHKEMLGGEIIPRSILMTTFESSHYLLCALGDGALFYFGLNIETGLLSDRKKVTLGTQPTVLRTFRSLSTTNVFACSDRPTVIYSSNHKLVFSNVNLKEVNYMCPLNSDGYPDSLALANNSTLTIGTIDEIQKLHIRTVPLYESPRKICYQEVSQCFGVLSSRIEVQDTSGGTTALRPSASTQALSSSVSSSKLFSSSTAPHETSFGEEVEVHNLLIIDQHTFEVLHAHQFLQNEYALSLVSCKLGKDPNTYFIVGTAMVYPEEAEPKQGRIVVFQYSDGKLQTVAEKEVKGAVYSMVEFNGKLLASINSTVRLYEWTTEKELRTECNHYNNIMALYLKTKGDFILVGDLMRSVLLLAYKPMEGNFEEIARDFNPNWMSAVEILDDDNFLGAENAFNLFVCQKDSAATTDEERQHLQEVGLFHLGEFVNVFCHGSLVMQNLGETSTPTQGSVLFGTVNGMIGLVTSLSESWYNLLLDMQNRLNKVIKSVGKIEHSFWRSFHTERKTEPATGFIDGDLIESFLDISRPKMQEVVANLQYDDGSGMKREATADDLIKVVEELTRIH
Assay type: cell-based
Design: Dmax: dose or concentration left out as unconfirmed
For Cn1nc(CN2CCCC[C@H]2COc2ccc3c(c2)CN(C2CCC(=O)NC2=O)C3=O)cc1-c1ccccc1 (stereo partly drawn) [Compound I-50bc], the Dmax was 93.4%.
For NS(=O)(=O)c1cc(CN2CCCC[C@H]2COc2ccc3c(c2)CN(C2CCC(=O)NC2=O)C3=O)ccc1Cl (stereo partly drawn) [Compound I-50bd], the Dmax was 41.1%.
In the case of Nc1ncc(CN2CCCC[C@H]2COc2ccc3c(c2)CN(C2CCC(=O)NC2=O)C3=O)cn1 (stereo partly drawn) [Compound I-50be], the Dmax is reported as 41.9%.
Work on COc1ccc(CN2CCCC[C@H]2COc2ccc3c(c2)CN(C2CCC(=O)NC2=O)C3=O)cn1 (stereo partly drawn) [Compound I-50bf] yielded a Dmax of 50.9%.
For O=C1CCC(N2Cc3cc(OC[C@H]4CCCCN4CC4CCN(Cc5ccccc5)CC4)ccc3C2=O)C(=O)N1 (stereo partly drawn) [Compound I-50bg], the Dmax was 98%.
For COC(=O)c1ccc(Oc2ccc(CN3CCCC[C@@H]3COc3ccc4c(c3)CN(C3CCC(=O)NC3=O)C4=O)cc2)cc1 (stereo partly drawn) [Compound I-50bh], the Dmax was 99.9%.
With O=C1CCC(N2Cc3cc(OC[C@@H]4CCCCN4Cc4cc(Cl)ccc4O)ccc3C2=O)C(=O)N1 (stereo partly drawn) [Compound I-50bj] the Dmax was 25.8%.
For N#Cc1cc(CN2CCCC[C@H]2COc2ccc3c(c2)CN(C2CCC(=O)NC2=O)C3=O)ccn1 (stereo partly drawn) [Compound I-50bl], the Dmax was 17.6%.
With N#Cc1cccc(CN2CCCC[C@H]2COc2ccc3c(c2)CN(C2CCC(=O)NC2=O)C3=O)c1 (stereo partly drawn) [Compound I-50bm] the Dmax was 36%.
O=C1CCC(N2Cc3cc(OC[C@@H]4CCCCN4Cc4ccnc(N5CCOCC5)c4)ccc3C2=O)C(=O)N1 (stereo partly drawn) [Compound I-50bn] was tested, and the Dmax was 76.2%.
Compound O=C1CCC(N2Cc3cc(OC[C@@H]4CCCCN4Cc4cccc(N5CCOCC5)n4)ccc3C2=O)C(=O)N1 (stereo partly drawn) [Compound I-50bo] has a Dmax of 57.4%.
For Cc1ncc(CN2CCCC[C@@H]2COc2ccc3c(c2)CN(C2CCC(=O)NC2=O)C3=O)[nH]1 (stereo partly drawn) [Compound I-50bp], the Dmax was 65.9%.
COC(=O)[C@@H]1CC[C@H](CN2CCCC[C@@H]2COc2ccc3c(c2)CN(C2CCC(=O)NC2=O)C3=O)C1 (stereo partly drawn) [Compound I-50bq] gave a Dmax of 72.1%.
O=C1CCC(N2Cc3cc(OC[C@H]4CCCCN4Cc4ccc(N5CCN(Cc6ccccc6)CC5)cc4)ccc3C2=O)C(=O)N1 (stereo partly drawn) [Compound I-50br] showed a Dmax of 94.1%.
In the case of O=C1CCC(N2Cc3cc(OC[C@H]4CCCCN4Cc4ccc(C(=O)N5CCCC5)cc4)ccc3C2=O)C(=O)N1 (stereo partly drawn) [Compound I-50bs], the Dmax is reported as 94.5%.
With O=C1CCC(N2Cc3cc(OC[C@H]4CCCCN4Cc4cnn(Cc5ccccc5)c4)ccc3C2=O)C(=O)N1 (stereo partly drawn) [Compound I-50bv] the Dmax was 99.9%.
In the case of O=C1CCC(N2Cc3cc(OC[C@@H]4CCCCN4Cc4cccc(O)c4O)ccc3C2=O)C(=O)N1 (stereo partly drawn) [Compound I-50bx], the Dmax is reported as 56.4%.

Same assay, conditions: HEK-293T, DMSO-normalized, curve-fitted percentage of WIZ-HiBit remaining at 25 uM; 293T cells; read-out: WIZ Amax
Cn1nc(CN2CCCC[C@H]2COc2ccc3c(c2)CN(C2CCC(=O)NC2=O)C3=O)cc1-c1ccccc1 (stereo partly drawn) [Compound I-50bc] gave a remaining activity at up to 25 µM of 6.6%.
NS(=O)(=O)c1cc(CN2CCCC[C@H]2COc2ccc3c(c2)CN(C2CCC(=O)NC2=O)C3=O)ccc1Cl (stereo partly drawn) [Compound I-50bd] was tested, and the remaining activity at up to 25 µM was 58.9%.
Nc1ncc(CN2CCCC[C@H]2COc2ccc3c(c2)CN(C2CCC(=O)NC2=O)C3=O)cn1 (stereo partly drawn) [Compound I-50be] was tested, and the remaining activity at up to 25 µM was 58.1%.
For COc1ccc(CN2CCCC[C@H]2COc2ccc3c(c2)CN(C2CCC(=O)NC2=O)C3=O)cn1 (stereo partly drawn) [Compound I-50bf], the remaining activity at up to 25 µM was 49.1%.
O=C1CCC(N2Cc3cc(OC[C@H]4CCCCN4CC4CCN(Cc5ccccc5)CC4)ccc3C2=O)C(=O)N1 (stereo partly drawn) [Compound I-50bg] gave a remaining activity at up to 25 µM of 2%.
In the case of COC(=O)c1ccc(Oc2ccc(CN3CCCC[C@@H]3COc3ccc4c(c3)CN(C3CCC(=O)NC3=O)C4=O)cc2)cc1 (stereo partly drawn) [Compound I-50bh], the remaining activity at up to 25 µM is reported as 0.1%.
With O=C1CCC(N2Cc3cc(OC[C@@H]4CCCCN4Cc4cc(Cl)ccc4O)ccc3C2=O)C(=O)N1 (stereo partly drawn) [Compound I-50bj] the remaining activity at up to 25 µM was 74.2%.
For N#Cc1cc(CN2CCCC[C@H]2COc2ccc3c(c2)CN(C2CCC(=O)NC2=O)C3=O)ccn1 (stereo partly drawn) [Compound I-50bl], the remaining activity at up to 25 µM was 82.4%.
In the case of N#Cc1cccc(CN2CCCC[C@H]2COc2ccc3c(c2)CN(C2CCC(=O)NC2=O)C3=O)c1 (stereo partly drawn) [Compound I-50bm], the remaining activity at up to 25 µM is reported as 64%.
O=C1CCC(N2Cc3cc(OC[C@@H]4CCCCN4Cc4ccnc(N5CCOCC5)c4)ccc3C2=O)C(=O)N1 (stereo partly drawn) [Compound I-50bn] gave a remaining activity at up to 25 µM of 23.8%.
O=C1CCC(N2Cc3cc(OC[C@@H]4CCCCN4Cc4cccc(N5CCOCC5)n4)ccc3C2=O)C(=O)N1 (stereo partly drawn) [Compound I-50bo] gave a remaining activity at up to 25 µM of 42.6%.
Compound Cc1ncc(CN2CCCC[C@@H]2COc2ccc3c(c2)CN(C2CCC(=O)NC2=O)C3=O)[nH]1 (stereo partly drawn) [Compound I-50bp] has a remaining activity at up to 25 µM of 34.1%.
For COC(=O)[C@@H]1CC[C@H](CN2CCCC[C@@H]2COc2ccc3c(c2)CN(C2CCC(=O)NC2=O)C3=O)C1 (stereo partly drawn) [Compound I-50bq], the remaining activity at up to 25 µM was 27.9%.
O=C1CCC(N2Cc3cc(OC[C@H]4CCCCN4Cc4ccc(N5CCN(Cc6ccccc6)CC5)cc4)ccc3C2=O)C(=O)N1 (stereo partly drawn) [Compound I-50br] was tested, and the remaining activity at up to 25 µM was 5.9%.
Work on O=C1CCC(N2Cc3cc(OC[C@H]4CCCCN4Cc4ccc(C(=O)N5CCCC5)cc4)ccc3C2=O)C(=O)N1 (stereo partly drawn) [Compound I-50bs] yielded a remaining activity at up to 25 µM of 5.5%.
O=C1CCC(N2Cc3cc(OC[C@H]4CCCCN4Cc4cnn(Cc5ccccc5)c4)ccc3C2=O)C(=O)N1 (stereo partly drawn) [Compound I-50bv] showed a remaining activity at up to 25 µM of 0.1%.
For O=C1CCC(N2Cc3cc(OC[C@@H]4CCCCN4Cc4cccc(O)c4O)ccc3C2=O)C(=O)N1 (stereo partly drawn) [Compound I-50bx], the remaining activity at up to 25 µM was 43.6%.

Same assay, conditions: WIZ HiBit assay in 293T cells; 10-point, 5-fold dose response, highest concentration 25 μM, about 18 hours; read-out: WIZ AC50
For Cn1nc(CN2CCCC[C@H]2COc2ccc3c(c2)CN(C2CCC(=O)NC2=O)C3=O)cc1-c1ccccc1 (stereo partly drawn) [Compound I-50bc], the DC50 was 0.058 µM.
With NS(=O)(=O)c1cc(CN2CCCC[C@H]2COc2ccc3c(c2)CN(C2CCC(=O)NC2=O)C3=O)ccc1Cl (stereo partly drawn) [Compound I-50bd] the DC50 was > 25 µM.
For Nc1ncc(CN2CCCC[C@H]2COc2ccc3c(c2)CN(C2CCC(=O)NC2=O)C3=O)cn1 (stereo partly drawn) [Compound I-50be], the DC50 was > 25 µM.
For COc1ccc(CN2CCCC[C@H]2COc2ccc3c(c2)CN(C2CCC(=O)NC2=O)C3=O)cn1 (stereo partly drawn) [Compound I-50bf], the DC50 was > 25 µM.
With O=C1CCC(N2Cc3cc(OC[C@H]4CCCCN4CC4CCN(Cc5ccccc5)CC4)ccc3C2=O)C(=O)N1 (stereo partly drawn) [Compound I-50bg] the DC50 was 0.031 µM.
Work on COC(=O)c1ccc(Oc2ccc(CN3CCCC[C@@H]3COc3ccc4c(c3)CN(C3CCC(=O)NC3=O)C4=O)cc2)cc1 (stereo partly drawn) [Compound I-50bh] yielded a DC50 of 0.005 µM.
With O=C1CCC(N2Cc3cc(OC[C@@H]4CCCCN4Cc4cc(Cl)ccc4O)ccc3C2=O)C(=O)N1 (stereo partly drawn) [Compound I-50bj] the DC50 was > 25 µM.
With N#Cc1cc(CN2CCCC[C@H]2COc2ccc3c(c2)CN(C2CCC(=O)NC2=O)C3=O)ccn1 (stereo partly drawn) [Compound I-50bl] the DC50 was > 25 µM.
N#Cc1cccc(CN2CCCC[C@H]2COc2ccc3c(c2)CN(C2CCC(=O)NC2=O)C3=O)c1 (stereo partly drawn) [Compound I-50bm] was tested, and the DC50 was > 25 µM.
O=C1CCC(N2Cc3cc(OC[C@@H]4CCCCN4Cc4ccnc(N5CCOCC5)c4)ccc3C2=O)C(=O)N1 (stereo partly drawn) [Compound I-50bn] was tested, and the DC50 was 0.897 µM.
Compound O=C1CCC(N2Cc3cc(OC[C@@H]4CCCCN4Cc4cccc(N5CCOCC5)n4)ccc3C2=O)C(=O)N1 (stereo partly drawn) [Compound I-50bo] has a DC50 of 20.8 µM.
Cc1ncc(CN2CCCC[C@@H]2COc2ccc3c(c2)CN(C2CCC(=O)NC2=O)C3=O)[nH]1 (stereo partly drawn) [Compound I-50bp] showed a DC50 of 7 µM.
COC(=O)[C@@H]1CC[C@H](CN2CCCC[C@@H]2COc2ccc3c(c2)CN(C2CCC(=O)NC2=O)C3=O)C1 (stereo partly drawn) [Compound I-50bq] was tested, and the DC50 was 1.2 µM.
O=C1CCC(N2Cc3cc(OC[C@H]4CCCCN4Cc4ccc(N5CCN(Cc6ccccc6)CC5)cc4)ccc3C2=O)C(=O)N1 (stereo partly drawn) [Compound I-50br] gave a DC50 of 0.044 µM.
Compound O=C1CCC(N2Cc3cc(OC[C@H]4CCCCN4Cc4ccc(C(=O)N5CCCC5)cc4)ccc3C2=O)C(=O)N1 (stereo partly drawn) [Compound I-50bs] has a DC50 of 0.018 µM.
Compound O=C1CCC(N2Cc3cc(OC[C@H]4CCCCN4Cc4cnn(Cc5ccccc5)c4)ccc3C2=O)C(=O)N1 (stereo partly drawn) [Compound I-50bv] has a DC50 of 0.001 µM.
In the case of O=C1CCC(N2Cc3cc(OC[C@@H]4CCCCN4Cc4cccc(O)c4O)ccc3C2=O)C(=O)N1 (stereo partly drawn) [Compound I-50bx], the DC50 is reported as 21 µM.
